How the values were obtained:
Homo sapiens = organism: Homo sapiens; experiment: Selectivity index, ratio of IC50 for human recombinant MAO-A to IC50 for human recombinant MAO-B
[1] = biological target: T1, Amine oxidase [flavin-containing] A (Homo sapiens, UniProt P21397); experiment: Inhibition of human recombinant MAO-A expressed in insect cell microsome assessed as 4-hydroxyquinoline formation using kynuramine as substrate after 20 mins by fluorescence spectrophotometry; type: microsomes
T1 sequence (P21397 whole entry): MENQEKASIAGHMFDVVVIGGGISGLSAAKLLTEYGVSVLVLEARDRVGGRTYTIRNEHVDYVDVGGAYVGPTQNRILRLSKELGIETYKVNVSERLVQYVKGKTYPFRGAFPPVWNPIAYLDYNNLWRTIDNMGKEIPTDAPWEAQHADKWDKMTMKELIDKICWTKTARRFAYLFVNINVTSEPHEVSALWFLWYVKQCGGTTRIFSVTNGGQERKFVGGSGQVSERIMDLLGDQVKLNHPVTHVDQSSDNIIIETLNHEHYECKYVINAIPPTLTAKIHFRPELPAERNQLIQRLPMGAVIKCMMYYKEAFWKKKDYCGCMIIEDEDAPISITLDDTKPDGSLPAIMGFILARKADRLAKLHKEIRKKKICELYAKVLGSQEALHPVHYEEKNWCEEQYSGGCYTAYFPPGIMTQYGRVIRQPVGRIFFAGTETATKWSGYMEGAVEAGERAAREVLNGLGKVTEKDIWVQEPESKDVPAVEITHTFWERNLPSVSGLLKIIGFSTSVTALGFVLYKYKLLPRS

[2] = biological target: T2, Amine oxidase [flavin-containing] B (Homo sapiens, UniProt P27338)
T2 sequence (P27338 whole entry): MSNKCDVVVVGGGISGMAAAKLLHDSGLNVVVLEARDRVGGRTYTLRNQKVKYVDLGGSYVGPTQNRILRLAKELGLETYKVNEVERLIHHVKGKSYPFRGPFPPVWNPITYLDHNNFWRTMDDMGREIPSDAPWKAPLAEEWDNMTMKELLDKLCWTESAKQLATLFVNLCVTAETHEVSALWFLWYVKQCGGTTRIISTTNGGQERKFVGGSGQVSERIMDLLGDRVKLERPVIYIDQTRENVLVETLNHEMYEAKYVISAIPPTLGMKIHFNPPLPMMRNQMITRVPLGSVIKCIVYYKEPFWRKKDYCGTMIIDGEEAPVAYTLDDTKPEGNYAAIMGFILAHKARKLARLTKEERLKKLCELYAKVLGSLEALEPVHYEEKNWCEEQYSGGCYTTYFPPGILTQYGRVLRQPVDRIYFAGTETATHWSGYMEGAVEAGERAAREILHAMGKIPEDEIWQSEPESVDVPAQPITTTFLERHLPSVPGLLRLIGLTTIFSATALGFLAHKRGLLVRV
Description: Inhibition of human recombinant MAO-B expressed in insect cell microsome assessed as 4-hydroxyquinoline formation using kynuramine as substrate after 20 mins by fluorescence spectrophotometry

[3] = Octanol-water partition coefficient, log P of the compound by shake flask method; type: physicochemical
[4] = biological target: T2, Amine oxidase [flavin-containing] B; experiment: Competitive inhibition of human recombinant MAO-B expressed in insect cell microsome using kynuramine as substrate by Morrison equation analysis; type: microsomes
[5] = biological target: T2, Amine oxidase [flavin-containing] B; experiment: Competitive inhibition of human recombinant MAO-B expressed in insect cell microsome using kynuramine as substrate by Lineweaver-Burk plot analysis; type: microsomes
[6] = biological target: T2, Amine oxidase [flavin-containing] B; experiment: (§1) Reversible inhibition of human recombinant MAO-B expressed in insect cell microsome assessed as enzyme activity recovery using kynuramine as substrate preincubated for 30 mins at 100xIC50 measured after 20 mins following 100-fold compound dilution with addition of substrate by fluorescence spectrophotometry; type: microsomes; design: scale not given: the % may be the effect or the level left
[7] = biological target: T2, Amine oxidase [flavin-containing] B; experiment: as §1, with “4-hydroxyquinoline formation” for “enzyme activity recovery”, “15 to 60” for “30”, “2 times IC50” for “100xIC50”, “15” for “20”, “twofold” for “100-fold”; type: microsomes; conditions: 0.25 h
[8] = biological target: T1, Amine oxidase [flavin-containing] A; experiment: (§2) Reversible inhibition of human recombinant MAO-A expressed in insect cell microsome assessed as 4-hydroxyquinoline formation using kynuramine as substrate preincubated for 15 to 60 mins at 2 times IC50 measured after 15 mins following twofold compound dilution with addition of substrate by fluorescence spectrophotometry; type: microsomes; conditions: 0.25 h
[9] = biological target: T2, Amine oxidase [flavin-containing] B; experiment: as §2, with “Time dependent” for “Reversible”, “MAO-B” for “MAO-A”; type: microsomes; conditions: 0.25 h
[10] = biological target: T1, Amine oxidase [flavin-containing] A; experiment: Inhibition of human recombinant MAO-A expressed in insect cell microsome assessed as 4-hydroxyquinoline formation using kynuramine as substrate at 100 uM after 20 mins by fluorescence spectrophotometry; type: microsomes

Structure (SMILES) | Ratio IC50 (Homo sapiens) | IC50 [1] [nM] | IC50 [2] [nM] | logP [3] | other results
Cc1cccc(CCSc2nc3c(c(=O)n(C)c(=O)n3C)n2C)c1 | 235 | 12000 | 51 |  | 
Cn1c(=O)c2c(nc(SCCCc3ccccc3)n2C)n(C)c1=O |  | 6480 |  | 3.3 | 
Cc1ccc(CCSc2nc3c(c(=O)n(C)c(=O)n3C)n2C)cc1 | 1740 | 125000 | 72 | 3.15 | 
COc1ccc(CCSc2nc3c(c(=O)n(C)c(=O)n3C)n2C)cc1 | 7300 | 168000 | 23 | 2.55 | 
Cn1c(=O)c2c(nc(SCc3cccc(Cl)c3)n2C)n(C)c1=O | 28 | 6430 | 227 |  | 
Cn1c(=O)c2c(nc([S+]([O-])CCc3ccc(Cl)cc3)n2C)n(C)c1=O (stereo unspecified) | 260 | 203000 | 781 |  | 
Cn1c(=O)c2c(nc(SCCCc3ccc(Cl)cc3)n2C)n(C)c1=O | 12 | 708 | 61 | 3.59 | 
Cn1c(=O)c2c(nc(SCCc3ccc(Br)cc3)n2C)n(C)c1=O | 5680 | 108000 | 19 | 2.98 | 
Cn1c(=O)c2c(nc(SCCc3cccc(Br)c3)n2C)n(C)c1=O | 143 | 5700 | 40 |  | 
Cn1c(=O)c2c(nc(SCCc3ccccc3)n2C)n(C)c1=O | 69 | 18700 | 271 | 3.22 | 

Continued, in another order:

Ratio IC50 (Homo sapiens) | IC50 [1] [nM] | IC50 [2] [nM] | logP [3] | Structure (SMILES) | other results
385 | 48100 | 125 |  | COc1cccc(CCSc2nc3c(c(=O)n(C)c(=O)n3C)n2C)c1 | 
68 | 239000 | 3500 |  | Cn1c(=O)c2c(nc([S+]([O-])CCc3ccc(F)cc3)n2C)n(C)c1=O (stereo unspecified) | 
122 | 57300 | 471 |  | Cn1c(=O)c2c(nc([S+]([O-])CCc3ccc(Br)cc3)n2C)n(C)c1=O (stereo unspecified) | 
207 | 14700 | 71 |  | Cn1c(=O)c2c(nc(SCCc3ccc(F)cc3)n2C)n(C)c1=O | 
2 | 250000 | 131000 |  | Cn1c(=O)c2c(nc([S+]([O-])Cc3ccccc3)n2C)n(C)c1=O (stereo unspecified) | 
132 | 5660 | 43 |  | Cn1c(=O)c2c(nc(SCCc3cccc(Cl)c3)n2C)n(C)c1=O | 
190 | 37900 | 199 |  | Cn1c(=O)c2c(nc(SCc3cccc(Br)c3)n2C)n(C)c1=O | 
423 | 8460 | 20 |  | Cn1c(=O)c2c(nc(SCCc3ccc(Cl)cc3)n2C)n(C)c1=O | Ki [4]: 9.8 nM; Ki [5]: 13 nM; Activity [6]: 26%; inhibition (INH) [7]: Active; inhibition (INH) [8]: Active; inhibition (INH) [9]: Active
8290 | 141000 | 17 | 3.14 | Cn1c(=O)c2c(nc(SCCc3cccc(C(F)(F)F)c3)n2C)n(C)c1=O | Activity [6]: 22%
 |  | 19 | 3.21 | Cn1c(=O)c2c(nc(SCCc3ccc(C(F)(F)F)cc3)n2C)n(C)c1=O | inhibition (INH) [10]: Not Active
57 | 3530 | 62 | 3.76 | Cn1c(=O)c2c(nc(SCCCc3cccc(Cl)c3)n2C)n(C)c1=O | 

— ChEMBL document CHEMBL2202975, “Inhibition of monoamine oxidase by 8-[(phenylethyl)sulfanyl]caffeine analogues” (Bioorg Med Chem, 2012)
